Molecules are shown by their SMILES.

Usually Ki stands for a measure of affinity in units of concentration, obtained from inhibition or displacement.

This experiment concerns the target T1, full length human recombinant glucocorticoid receptor (Homo sapiens, UniProt P04150).
T1 construct: partially purified full length human recombinant glucocorticoid receptor; purchased Panvera/Invitrogen PV4302
T1 sequence (P04150 1-777): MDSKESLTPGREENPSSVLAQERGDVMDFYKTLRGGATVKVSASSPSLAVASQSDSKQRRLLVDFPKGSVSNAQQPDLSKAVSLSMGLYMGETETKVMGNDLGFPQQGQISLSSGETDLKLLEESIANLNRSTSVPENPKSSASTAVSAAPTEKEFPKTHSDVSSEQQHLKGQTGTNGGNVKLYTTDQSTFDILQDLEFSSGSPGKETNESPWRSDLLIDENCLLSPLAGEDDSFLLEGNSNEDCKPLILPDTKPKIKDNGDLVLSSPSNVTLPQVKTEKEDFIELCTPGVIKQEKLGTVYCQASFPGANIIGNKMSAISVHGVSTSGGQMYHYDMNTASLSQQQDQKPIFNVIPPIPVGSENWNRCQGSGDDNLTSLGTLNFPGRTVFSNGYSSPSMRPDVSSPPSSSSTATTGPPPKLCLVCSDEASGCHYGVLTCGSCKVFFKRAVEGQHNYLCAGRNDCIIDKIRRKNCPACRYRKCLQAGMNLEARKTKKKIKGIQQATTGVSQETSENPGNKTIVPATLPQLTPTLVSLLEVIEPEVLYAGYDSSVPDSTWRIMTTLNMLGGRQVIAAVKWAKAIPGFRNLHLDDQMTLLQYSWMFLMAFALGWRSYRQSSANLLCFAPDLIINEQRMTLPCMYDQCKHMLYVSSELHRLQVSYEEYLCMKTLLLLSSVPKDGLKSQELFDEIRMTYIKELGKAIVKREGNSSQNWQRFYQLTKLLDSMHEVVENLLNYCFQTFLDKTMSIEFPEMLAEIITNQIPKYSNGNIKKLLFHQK
Briefly: Glucocorticoid Receptor Binding Assay (fluorescence polarization competitor assay, Fluormone GS Far Red tracer). In short, it runs like this:
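Serially diluted compounds competed with the tight-binding far-red fluorescent ligand for recombinant full-length human glucocorticoid receptor plus GR-stabilizing peptide (screening buffer pH 7.4; 3 h, 22 °C, dark). Polarization (610-660 nm) gave IC50 via sigmoidal dose-response fits, and Ki was derived by Cheng-Prusoff from tracer concentration and Kd.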
With `C[C@@H](c1cc(F)c(Oc2ccc(C(=O)O)c(F)c2)cc1Cl)[C@](O)(c1ccc(=O)n(C)c1)C(F)(F)F` (stereo in doubt) [Example 202, 4-{5-Chloro-2-fluoro-4-[3,3,3-trifluoro-2-hydroxy-1-methyl-2-(1-methyl-6-oxo-1,6-dihydro-pyridin-3-yl)-propyl]-phenoxy}-2-fluoro-benzoic acid], the inhibition constant (Ki) amounted to 47.9 nM.

For `COC(=O)c1ccc(Oc2ccc([C@H](C)[C@](O)(c3cc(C)c(=O)n(C)c3)C(F)(F)F)c(Cl)c2)cc1F` (stereo in doubt) [Example 203, 4-{3-Chloro-4-[2-(1,5-dimethyl-6-oxo-1,6-dihydro-pyridin-3-yl)-3,3,3-trifluoro-2-hydroxy-1-methyl-propyl]-phenoxy}-2-fluoro-benzoic acid methyl ester], the Ki amounted to 0.8 nM.

`Cc1cc([C@@](O)([C@@H](C)c2ccc(Oc3cc(C(F)(F)F)c(C(=O)O)cn3)cc2Cl)C(F)(F)F)cn(C)c1=O` (stereo in doubt) [Example 206, 6-{3-Chloro-4-[2-(1,5-dimethyl-6-oxo-1,6-dihydro-pyridin-3-yl)-3,3,3-trifluoro-2-hydroxy-1-methyl-propyl]-phenoxy}-4-trifluoromethyl-nicotinic acid]: the Ki was found to be 0.7 nM.

For the compound `COC(=O)c1ccc(Oc2ccc([C@H](C)[C@](O)(c3cc(C)c(=O)n(C)c3)C(F)(F)F)c(Cl)c2)cc1Cl` (stereo in doubt) [Example 207, 2-Chloro-4-{3-chloro-4-[2-(1,5-dimethyl-6-oxo-1,6-dihydro-pyridin-3-yl)-3,3,3-trifluoro-2-hydroxy-1-methyl-propyl]-phenoxy}-benzoic acid methyl ester], the Ki was found to be 0.9 nM.

On to `Cc1cc([C@@](O)([C@@H](C)c2ccc(Oc3ccc(C(=O)O)c(C(F)(F)F)n3)cc2Cl)C(F)(F)F)cn(C)c1=O` (stereo in doubt) [Example 209, 6-{3-Chloro-4-[2-(1,5-dimethyl-6-oxo-1,6-dihydro-pyridin-3-yl)-3,3,3-trifluoro-2-hydroxy-1-methyl-propyl]-phenoxy}-2-trifluoromethyl-nicotinic acid], for which the inhibitory constant (Ki) is 1.4 nM.

Consider `Cc1cc([C@@](O)([C@@H](C)c2ccc(Oc3ccc(Cl)c(C(=O)O)c3)cc2Cl)C(F)(F)F)cn(C)c1=O` (stereo in doubt) [Example 211, 2-Chloro-5-{3-chloro-4-[2-(1,5-dimethyl-6-oxo-1,6-dihydro-pyridin-3-yl)-3,3,3-trifluoro-2-hydroxy-1-methyl-propyl]-phenoxy}-benzoic acid], for which the Ki is 0.7 nM.

On to `CCOC(=O)c1cc(Oc2ccc([C@H](C)[C@](O)(c3cc(C)c(=O)n(C)c3)C(F)(F)F)c(Cl)c2)ccc1F` (stereo in doubt) [Example 212, 5-{3-Chloro-4-[2-(1,5-dimethyl-6-oxo-1,6-dihydro-pyridin-3-yl)-3,3,3-trifluoro-2-hydroxy-1-methyl-propyl]-phenoxy}-2-fluoro-benzoic acid ethyl ester], for which the Ki is 1.9 nM.

In the case of `Cc1cc([C@@](O)([C@@H](C)c2ccc(Oc3ccc(C(=O)O)c(C(F)(F)F)c3)cc2Cl)C(F)(F)F)cn(C)c1=O` (stereo in doubt) [Example 214, 4-{3-Chloro-4-[2-(1,5-dimethyl-6-oxo-1,6-dihydro-pyridin-3-yl)-3,3,3-trifluoro-2-hydroxy-1-methyl-propyl]-phenoxy}-2-trifluoromethyl-benzoic acid], the Ki worked out at 0.5 nM.

Consider `C[C@H](c1ccc(Oc2ccc(C(=O)O)c(C(F)(F)F)c2)cc1Cl)[C@@](O)(c1ccc(=O)n(C)c1)C(F)(F)F` (stereo in doubt) [Example 220, 4-{3-Chloro-4-[3,3,3-trifluoro-2-hydroxy-1-methyl-2-(1-methyl-6-oxo-1,6-dihydro-pyridin-3-yl)-propyl]-phenoxy}-2-trifluoromethyl-benzoic acid], for which the Ki was found to be 4 nM.

For the compound `C[C@@H](c1ccc(Oc2ccc(C(=O)O)c(Cl)c2)cc1Cl)[C@](O)(c1cc(Cl)c(=O)n(C)c1)C(F)(F)F` (stereo in doubt) [Example 222, 2-Chloro-4-{3-chloro-4-[2-(5-chloro-1-methyl-6-oxo-1,6-dihydro-pyridin-3-yl)-3,3,3-trifluoro-2-hydroxy-1-methyl-propyl]-phenoxy}-benzoic acid], the Ki was 0.6 nM.

In the case of `COC(=O)c1cnc(Oc2ccc([C@H](C)[C@](O)(c3cc(Cl)c(=O)n(C)c3)C(F)(F)F)c(Cl)c2)cc1C(F)(F)F` (stereo in doubt) [Example 223, 6-{3-Chloro-4-[2-(5-chloro-1-methyl-6-oxo-1,6-dihydro-pyridin-3-yl)-3,3,3-trifluoro-2-hydroxy-1-methyl-propyl]-phenoxy}-4-trifluoromethyl-nicotinic acid methyl ester], the Ki stood at 4.7 nM.

As to `C[C@@H](c1ccc(Oc2cc(C(F)(F)F)c(C(=O)O)cn2)cc1Cl)[C@](O)(c1cc(Cl)c(=O)n(C)c1)C(F)(F)F` (stereo in doubt) [Example 224, 6-{3-Chloro-4-[2-(5-chloro-1-methyl-6-oxo-1,6-dihydro-pyridin-3-yl)-3,3,3-trifluoro-2-hydroxy-1-methyl-propyl]-phenoxy}-4-trifluoromethyl-nicotinic acid], the Ki was determined as 3.8 nM.

Take `C[C@H](c1ccc(-c2ccc(C(=O)O)c(F)c2)cc1Cl)[C@@](O)(c1cnc2ccccc2c1)C(F)(F)F` (stereo in doubt) [Example 225, 3′-Chloro-3-fluoro-4′-(3,3,3-trifluoro-2-hydroxy-1-methyl-2-quinolin-3-yl-propyl)-biphenyl-4-carboxylic acid]: the Ki was determined as 7.1 nM.

On to `C[C@H](c1ccc(Oc2ccc(C(=O)O)c(Cl)c2)cc1Cl)[C@@](O)(c1ccc2nccnc2c1)C(F)(F)F` (stereo in doubt) [Example 228, 2-Chloro-4-[3-chloro-4-(3,3,3-trifluoro-2-hydroxy-1-methyl-2-quinoxalin-6-yl-propyl)-phenoxy]-benzoic acid], for which the inhibition constant Ki came to 64.5 nM.

Regarding `C[C@H](c1ccc(-c2ccc(C(=O)O)c(F)c2)cc1Cl)[C@@](O)(c1ccc(C#N)n1C)C(F)(F)F` (stereo in doubt) [Example 230, 3′-Chloro-4′-[2-(5-cyano-1-methyl-1H-pyrrol-2-yl)-3,3,3-trifluoro-2-hydroxy-1-methyl-propyl]-3-fluoro-biphenyl-4-carboxylic acid], the Ki is 24.9 nM.

As for `C[C@H](c1ccc(Oc2ccc(C(=O)O)c(Cl)c2)cc1Cl)[C@@](O)(c1ccc(C#N)n1C)C(F)(F)F` (stereo in doubt) [Example 232, 2-Chloro-4-{3-chloro-4-[2-(5-cyano-1-methyl-1H-pyrrol-2-yl)-3,3,3-trifluoro-2-hydroxy-1-methyl-propyl]-phenoxy}-benzoic acid], the Ki was determined as 14.6 nM.

On to `C[C@H](c1ccc(Oc2ncc(C(=O)O)cc2Cl)cc1Cl)[C@@](O)(c1ccc(C#N)n1C)C(F)(F)F` (stereo in doubt) [Example 233, 5-Chloro-6-{3-chloro-4-[2-(5-cyano-1-methyl-1H-pyrrol-2-yl)-3,3,3-trifluoro-2-hydroxy-1-methyl-propyl]-phenoxy}-nicotinic acid], for which the Ki was 3.9 nM.

As for `Cc1cc([C@](O)([C@H](C)c2ccc(Oc3ncc(C(=O)O)cc3Cl)cc2Cl)C(F)(F)F)sc1C#N` (stereo in doubt) [Example 234, 5-Chloro-6-{3-chloro-4-[2-(5-cyano-4-methyl-thiophen-2-yl)-3,3,3-trifluoro-2-hydroxy-1-methyl-propyl]-phenoxy}-nicotinic acid], the Ki was determined as 1.3 nM.

Source of the values: patent publication US8138189B2, “Substituted benzene compounds as modulators of the glucocorticoid receptor” (Hoffman-La Roche Inc., priority 2009, dated 2012).
